PubChem BioAssay (NCI)
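Values below derive from 48-hour exposures of cells grown in 96-well plates, with endpoints linearly interpolated between the two concentrations bracketing the appropriate inhibition level. At the GI50, growth is halved. TGI denotes the concentration required for complete inhibition of growth.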

Legend:
Test in all cases: growth of human tumour cells (NCI), 48 h
SR leukemia = tested on: SR leukemia
NCI-H522 lung = tested on: NCI-H522 lung
SNB-75 CNS = tested on: SNB-75 CNS
PC-3 prostate = tested on: PC-3 prostate
OVCAR-3 ovarian = tested on: OVCAR-3 ovarian
NCI-H460 lung = tested on: NCI-H460 lung
OVCAR-5 ovarian = tested on: OVCAR-5 ovarian
DU-145 prostate = tested on: DU-145 prostate
MCF7 breast = tested on: MCF7 breast
HOP-62 NSCLC = tested on: HOP-62 NSCLC
SF-268 CNS = tested on: SF-268 CNS
CAKI-1 renal = tested on: CAKI-1 renal
KM12 colon = tested on: KM12 colon
A549 NSCLC = tested on: A549 NSCLC
UACC-62 melanoma = tested on: UACC-62 melanoma
ACHN renal = tested on: ACHN renal
IGROV1 ovarian = tested on: IGROV1 ovarian
MOLT-4 leukemia = tested on: MOLT-4 leukemia
HCT-15 colon = tested on: HCT-15 colon
MDA-MB-231 breast = tested on: MDA-MB-231 breast
SF-295 CNS = tested on: SF-295 CNS
MDA-MB-435 = tested on: MDA-MB-435
HCC-2998 colon = tested on: HCC-2998 colon
SK-MEL-2 melanoma = tested on: SK-MEL-2 melanoma
SN12C renal = tested on: SN12C renal
OVCAR-4 ovarian = tested on: OVCAR-4 ovarian
NCI-H23 lung = tested on: NCI-H23 lung
SF-539 CNS = tested on: SF-539 CNS
K-562 leukemia = tested on: K-562 leukemia
M14 melanoma = tested on: M14 melanoma
OVCAR-8 ovarian = tested on: OVCAR-8 ovarian
BT-549 breast = tested on: BT-549 breast
T-47D breast = tested on: T-47D breast
A498 renal = tested on: A498 renal
RXF 393 renal = tested on: RXF 393 renal
SW-620 colon = tested on: SW-620 colon
HT29 colon = tested on: HT29 colon
UACC-257 melanoma = tested on: UACC-257 melanoma
SK-MEL-5 melanoma = tested on: SK-MEL-5 melanoma
NCI-H226 lung = tested on: NCI-H226 lung
SNB-19 CNS = tested on: SNB-19 CNS
SK-OV-3 ovarian = tested on: SK-OV-3 ovarian
TK-10 renal = tested on: TK-10 renal
NCI/ADR-RES ovarian = tested on: NCI/ADR-RES ovarian
786-0 renal = tested on: 786-0 renal
U251 CNS = tested on: U251 CNS
HS 578T breast = tested on: HS 578T breast
HL-60(TB) leukemia = tested on: HL-60(TB) leukemia
UO-31 renal = tested on: UO-31 renal
LOX IMVI melanoma = tested on: LOX IMVI melanoma
EKVX NSCLC = tested on: EKVX NSCLC
CCRF-CEM leukemia = tested on: CCRF-CEM leukemia
HCT-116 colon = tested on: HCT-116 colon
SK-MEL-28 melanoma = tested on: SK-MEL-28 melanoma
MALME-3M melanoma = tested on: MALME-3M melanoma
COLO 205 colon = tested on: COLO 205 colon
RPMI-8226 leukemia = tested on: RPMI-8226 leukemia
HOP-92 NSCLC = tested on: HOP-92 NSCLC

In the case of `CC(=O)Oc1cccc2c1C(=O)CCCC2`, the TGI (SR leukemia) is reported as > 100 µM, the TGI (NCI-H522 lung) is reported as > 100 µM and the TGI (SNB-75 CNS) is reported as 4.78 µM. The TGI (PC-3 prostate) was > 100 µM, the TGI (OVCAR-3 ovarian) was > 100 µM and the TGI (NCI-H460 lung) was > 100 µM. For the same molecule, the TGI (OVCAR-5 ovarian) was > 100 µM, the TGI (DU-145 prostate) was > 100 µM and the TGI (MCF7 breast) was > 100 µM. For the same molecule, the TGI (HOP-62 NSCLC) was > 100 µM, the TGI (SF-268 CNS) was > 100 µM and the TGI (CAKI-1 renal) was > 100 µM. The TGI (KM12 colon) was > 100 µM, the TGI (A549 NSCLC) was > 100 µM and the TGI (UACC-62 melanoma) was > 100 µM. For the same molecule, the TGI (ACHN renal) was > 100 µM, the TGI (IGROV1 ovarian) was > 100 µM and the TGI (MOLT-4 leukemia) was > 100 µM. For the same molecule, the TGI (HCT-15 colon) was > 100 µM, the TGI (MDA-MB-231 breast) was > 100 µM and the TGI (SF-295 CNS) was > 100 µM. For the same molecule, the TGI (MDA-MB-435) was > 100 µM, the TGI (HCC-2998 colon) was > 100 µM and the TGI (SK-MEL-2 melanoma) was > 100 µM. For the same molecule, the TGI (SN12C renal) was > 100 µM, the TGI (OVCAR-4 ovarian) was > 100 µM and the TGI (NCI-H23 lung) was > 100 µM. For the same molecule, the TGI (SF-539 CNS) was > 100 µM, the TGI (K-562 leukemia) was > 100 µM and the TGI (M14 melanoma) was > 100 µM. The TGI (OVCAR-8 ovarian) was > 100 µM, the TGI (BT-549 breast) was > 100 µM and the TGI (T-47D breast) was > 100 µM. The TGI (A498 renal) was > 100 µM, the TGI (RXF 393 renal) was > 100 µM and the TGI (SW-620 colon) was > 100 µM. For the same molecule, the TGI (HT29 colon) was > 100 µM, the TGI (UACC-257 melanoma) was > 100 µM and the TGI (SK-MEL-5 melanoma) was > 100 µM. The TGI (NCI-H226 lung) was > 100 µM, the TGI (SNB-19 CNS) was > 100 µM and the TGI (SK-OV-3 ovarian) was > 100 µM. The TGI (TK-10 renal) was > 100 µM, the TGI (NCI/ADR-RES ovarian) was > 100 µM and the TGI (786-0 renal) was > 100 µM. The TGI (U251 CNS) was > 100 µM, the TGI (HS 578T breast) was > 100 µM and the TGI (HL-60(TB) leukemia) was > 100 µM. For the same molecule, the TGI (UO-31 renal) was > 100 µM, the TGI (LOX IMVI melanoma) was > 100 µM and the TGI (EKVX NSCLC) was > 100 µM. The TGI (CCRF-CEM leukemia) was > 100 µM, the TGI (HCT-116 colon) was > 100 µM and the TGI (SK-MEL-28 melanoma) was > 100 µM. For the same molecule, the TGI (MALME-3M melanoma) was > 100 µM and the TGI (COLO 205 colon) was > 100 µM.

With `Cc1csc(-c2nnc(Nc3ccc(Oc4ncccc4-c4ccnc(N)n4)cc3)c3ccccc23)c1` the GI50 (SR leukemia) was < 0.01 µM, the TGI (SR leukemia) was > 100 µM and the GI50 (NCI-H522 lung) was 5.31 µM. The TGI (NCI-H522 lung) was > 69.1 µM, the GI50 (PC-3 prostate) was > 27.1 µM and the TGI (PC-3 prostate) was > 100 µM. For the same molecule, the TGI (OVCAR-3 ovarian) was > 100 µM, the GI50 (NCI-H460 lung) was 0.0214 µM and the TGI (NCI-H460 lung) was > 100 µM. The GI50 (OVCAR-5 ovarian) was > 100 µM, the TGI (OVCAR-5 ovarian) was > 100 µM and the GI50 (DU-145 prostate) was 4.61 µM. For the same molecule, the TGI (DU-145 prostate) was > 100 µM, the GI50 (MCF7 breast) was 0.13 µM and the TGI (MCF7 breast) was > 100 µM. The GI50 (HOP-62 NSCLC) was 4.4 µM, the TGI (HOP-62 NSCLC) was > 100 µM and the TGI (CAKI-1 renal) was > 100 µM. For the same molecule, the GI50 (KM12 colon) was 2.41 µM, the TGI (KM12 colon) was > 100 µM and the GI50 (A549 NSCLC) was 1.95 µM. The TGI (A549 NSCLC) was > 100 µM, the GI50 (UACC-62 melanoma) was 0.767 µM and the TGI (UACC-62 melanoma) was > 100 µM. The GI50 (ACHN renal) was 2.11 µM, the TGI (ACHN renal) was > 100 µM and the GI50 (IGROV1 ovarian) was 3.35 µM. The TGI (IGROV1 ovarian) was > 100 µM, the GI50 (MOLT-4 leukemia) was 3.34 µM and the TGI (MOLT-4 leukemia) was > 100 µM. The GI50 (HCT-15 colon) was 1.78 µM, the TGI (HCT-15 colon) was > 100 µM and the GI50 (MDA-MB-231 breast) was 4.32 µM. The TGI (MDA-MB-231 breast) was > 100 µM, the GI50 (SF-295 CNS) was 2.98 µM and the TGI (SF-295 CNS) was > 100 µM. For the same molecule, the GI50 (MDA-MB-435) was 2.45 µM, the TGI (MDA-MB-435) was > 100 µM and the GI50 (HCC-2998 colon) was 2.54 µM. The TGI (HCC-2998 colon) was > 30.2 µM, the GI50 (SK-MEL-2 melanoma) was 2.71 µM and the TGI (SK-MEL-2 melanoma) was > 26.9 µM. For the same molecule, the GI50 (SN12C renal) was 2.54 µM, the TGI (SN12C renal) was > 100 µM and the GI50 (OVCAR-4 ovarian) was 6.59 µM. The TGI (OVCAR-4 ovarian) was > 100 µM, the GI50 (RPMI-8226 leukemia) was 3.05 µM and the TGI (RPMI-8226 leukemia) was > 100 µM. The GI50 (NCI-H23 lung) was 2.9 µM, the TGI (NCI-H23 lung) was > 100 µM and the GI50 (SF-539 CNS) was > 100 µM. The TGI (SF-539 CNS) was > 100 µM, the GI50 (K-562 leukemia) was 3.15 µM and the TGI (K-562 leukemia) was > 100 µM. For the same molecule, the GI50 (M14 melanoma) was 1.51 µM, the TGI (M14 melanoma) was > 100 µM and the TGI (OVCAR-8 ovarian) was > 100 µM. For the same molecule, the GI50 (BT-549 breast) was > 100 µM, the TGI (BT-549 breast) was > 100 µM and the GI50 (T-47D breast) was 5 µM. For the same molecule, the TGI (T-47D breast) was > 100 µM, the GI50 (A498 renal) was > 100 µM and the TGI (A498 renal) was > 100 µM. The GI50 (RXF 393 renal) was 1.51 µM, the TGI (RXF 393 renal) was > 100 µM and the GI50 (SW-620 colon) was 0.651 µM. For the same molecule, the TGI (SW-620 colon) was > 100 µM, the GI50 (HT29 colon) was 0.558 µM and the TGI (HT29 colon) was > 100 µM. For the same molecule, the TGI (UACC-257 melanoma) was > 100 µM, the GI50 (SK-MEL-5 melanoma) was 71.5 µM and the TGI (SK-MEL-5 melanoma) was > 100 µM. The GI50 (NCI-H226 lung) was > 63.8 µM, the TGI (NCI-H226 lung) was > 100 µM and the GI50 (SNB-19 CNS) was > 100 µM. The TGI (SNB-19 CNS) was > 100 µM, the GI50 (SK-OV-3 ovarian) was > 100 µM and the TGI (SK-OV-3 ovarian) was > 100 µM. For the same molecule, the GI50 (TK-10 renal) was > 100 µM, the TGI (TK-10 renal) was > 100 µM and the GI50 (NCI/ADR-RES ovarian) was 0.355 µM. The TGI (NCI/ADR-RES ovarian) was > 100 µM, the GI50 (786-0 renal) was > 100 µM and the TGI (786-0 renal) was > 100 µM. For the same molecule, the GI50 (U251 CNS) was > 100 µM, the TGI (U251 CNS) was > 100 µM and the GI50 (HS 578T breast) was > 100 µM. For the same molecule, the TGI (HS 578T breast) was > 100 µM, the GI50 (HL-60(TB) leukemia) was 2.16 µM and the TGI (HL-60(TB) leukemia) was > 100 µM. The TGI (UO-31 renal) was > 100 µM, the GI50 (LOX IMVI melanoma) was 0.433 µM and the TGI (LOX IMVI melanoma) was > 100 µM. The GI50 (HOP-92 NSCLC) was > 100 µM, the TGI (HOP-92 NSCLC) was > 100 µM and the GI50 (EKVX NSCLC) was > 100 µM. For the same molecule, the TGI (EKVX NSCLC) was > 100 µM, the GI50 (CCRF-CEM leukemia) was 0.234 µM and the TGI (CCRF-CEM leukemia) was > 100 µM. The GI50 (HCT-116 colon) was 1.89 µM, the TGI (HCT-116 colon) was > 100 µM and the GI50 (SK-MEL-28 melanoma) was 2.1 µM. The TGI (SK-MEL-28 melanoma) was > 100 µM, the GI50 (MALME-3M melanoma) was 1.9 µM and the TGI (MALME-3M melanoma) was > 100 µM.
